Activity calls are given as the source filed them. The calls are words filed in the database; no cut-off is given here.
How the values were obtained:
[1] = target: Sodium-dependent serotonin transporter (Rattus norvegicus, UniProt P31652); test: Displacement of [3H]-citalopram from SERT in Sprague-Dawley rat brainstem incubated for 60 mins by radioligand binding assay; type: tissue-based
[2] = target: Sodium-dependent dopamine transporter (Rattus norvegicus, UniProt P23977); test: Displacement of [3H]-WIN 3542875 from DAT in Sprague-Dawley rat brain striatum incubated for 120 mins by radioligand binding assay; type: tissue-based
Chain of Sodium-dependent dopamine transporter (P23977 whole entry): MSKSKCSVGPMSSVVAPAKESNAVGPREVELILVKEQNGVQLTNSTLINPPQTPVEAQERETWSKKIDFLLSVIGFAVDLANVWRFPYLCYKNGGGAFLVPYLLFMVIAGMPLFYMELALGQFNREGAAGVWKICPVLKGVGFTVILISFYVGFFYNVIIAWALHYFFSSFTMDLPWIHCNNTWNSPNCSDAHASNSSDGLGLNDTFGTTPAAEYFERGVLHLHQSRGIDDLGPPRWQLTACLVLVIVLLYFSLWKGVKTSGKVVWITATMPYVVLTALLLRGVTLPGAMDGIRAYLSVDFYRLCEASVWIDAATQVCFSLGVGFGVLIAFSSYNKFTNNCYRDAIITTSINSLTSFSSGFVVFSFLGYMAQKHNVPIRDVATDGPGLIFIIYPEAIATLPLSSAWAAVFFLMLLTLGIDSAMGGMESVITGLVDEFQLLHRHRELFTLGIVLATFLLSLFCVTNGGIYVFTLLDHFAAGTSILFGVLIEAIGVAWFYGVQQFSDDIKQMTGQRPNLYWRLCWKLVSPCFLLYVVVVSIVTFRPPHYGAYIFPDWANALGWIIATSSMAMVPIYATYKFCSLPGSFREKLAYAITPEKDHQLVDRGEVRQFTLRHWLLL

[3] = target: Norepinephrine transporter (Rattus norvegicus, UniProt Q9WTR4); test: Displacement of [3H]-nisoxetine from NET in Sprague-Dawley rat brain prefrontal cortex incubated for 180 mins by radioligand binding assay; type: tissue-based
Chain of Norepinephrine transporter (Q9WTR4 whole entry): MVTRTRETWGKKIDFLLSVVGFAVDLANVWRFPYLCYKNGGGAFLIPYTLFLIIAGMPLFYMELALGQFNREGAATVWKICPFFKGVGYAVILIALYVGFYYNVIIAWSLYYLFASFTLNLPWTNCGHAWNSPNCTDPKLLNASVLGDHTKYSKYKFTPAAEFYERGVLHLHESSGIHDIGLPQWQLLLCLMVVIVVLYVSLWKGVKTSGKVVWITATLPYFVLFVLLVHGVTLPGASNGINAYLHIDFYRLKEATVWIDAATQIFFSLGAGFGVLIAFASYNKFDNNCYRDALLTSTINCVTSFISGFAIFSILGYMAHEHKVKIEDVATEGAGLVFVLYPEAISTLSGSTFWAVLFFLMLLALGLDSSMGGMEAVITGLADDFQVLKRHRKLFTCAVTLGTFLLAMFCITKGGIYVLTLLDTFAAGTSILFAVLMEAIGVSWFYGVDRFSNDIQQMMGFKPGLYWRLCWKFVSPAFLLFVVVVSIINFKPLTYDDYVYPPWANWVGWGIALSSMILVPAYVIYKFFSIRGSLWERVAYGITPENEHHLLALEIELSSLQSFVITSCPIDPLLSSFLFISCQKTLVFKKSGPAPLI

[4] = target: Sodium-dependent noradrenaline transporter (Homo sapiens) (UniProt P23975); test: Binding affinity to YFP-tagged human NET expressed in HEK293 cells assessed as fluorescence increase at plasma membrane at 10 nM incubated for 1 to 20 mins by laser scanning microscopy; settings: time 1-20 min, TDE = time-dependent effect
Chain of Sodium-dependent noradrenaline transporter (Homo sapiens) (P23975 whole entry): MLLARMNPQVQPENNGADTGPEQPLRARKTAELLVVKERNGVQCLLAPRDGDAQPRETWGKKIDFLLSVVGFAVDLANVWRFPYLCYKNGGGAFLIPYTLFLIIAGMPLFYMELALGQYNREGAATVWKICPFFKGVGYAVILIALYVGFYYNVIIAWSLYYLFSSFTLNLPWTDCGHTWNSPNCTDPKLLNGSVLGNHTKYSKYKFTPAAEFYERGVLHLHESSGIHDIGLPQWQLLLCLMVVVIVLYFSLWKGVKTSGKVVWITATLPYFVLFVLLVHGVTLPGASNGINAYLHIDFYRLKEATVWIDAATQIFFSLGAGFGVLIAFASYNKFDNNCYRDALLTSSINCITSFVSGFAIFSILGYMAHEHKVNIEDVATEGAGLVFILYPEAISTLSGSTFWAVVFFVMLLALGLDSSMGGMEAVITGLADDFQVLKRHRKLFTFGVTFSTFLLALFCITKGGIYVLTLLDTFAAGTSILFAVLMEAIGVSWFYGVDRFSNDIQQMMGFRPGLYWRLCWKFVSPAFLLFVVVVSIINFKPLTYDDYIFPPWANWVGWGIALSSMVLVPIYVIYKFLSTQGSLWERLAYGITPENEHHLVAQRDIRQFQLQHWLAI

[5] = target: Sodium-dependent serotonin transporter (Homo sapiens) (UniProt P31645); test: Binding affinity to human SERT expressed in HEK293 cells at 10 nM incubated for 20 mins by laser scanning microscopy; type: cell-based
Chain of Sodium-dependent serotonin transporter (Homo sapiens) (P31645 whole entry, looked up): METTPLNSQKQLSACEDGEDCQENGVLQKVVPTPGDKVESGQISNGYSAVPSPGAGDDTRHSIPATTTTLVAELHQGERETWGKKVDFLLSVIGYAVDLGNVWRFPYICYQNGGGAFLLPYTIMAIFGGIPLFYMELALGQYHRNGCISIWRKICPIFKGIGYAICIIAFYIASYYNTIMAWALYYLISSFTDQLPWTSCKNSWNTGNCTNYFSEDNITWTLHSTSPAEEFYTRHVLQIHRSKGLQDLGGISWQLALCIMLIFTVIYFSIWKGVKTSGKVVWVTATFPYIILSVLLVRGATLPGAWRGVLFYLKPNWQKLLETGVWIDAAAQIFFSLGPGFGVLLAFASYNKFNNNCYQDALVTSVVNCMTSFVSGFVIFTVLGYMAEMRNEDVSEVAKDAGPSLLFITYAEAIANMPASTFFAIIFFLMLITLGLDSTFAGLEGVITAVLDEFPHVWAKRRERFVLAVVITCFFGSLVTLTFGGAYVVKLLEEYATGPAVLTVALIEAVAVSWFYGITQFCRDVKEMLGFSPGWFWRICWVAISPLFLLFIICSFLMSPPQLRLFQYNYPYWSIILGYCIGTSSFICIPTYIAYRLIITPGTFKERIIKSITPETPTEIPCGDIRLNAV

[6] = target: Sodium-dependent noradrenaline transporter (Homo sapiens) (UniProt P23975); test: Binding affinity to human NET expressed in HEK293 cells assessed as fluorescence increase at plasma membrane at 1 to 10 nM incubated for 10 mins by laser scanning microscopy; settings: dose 1-10 nM, DDE = dose-dependent effect
Rattus norvegicus [7] = species: Rattus norvegicus; test: Selectivity index, ratio of Ki for Displacement of [3H]-WIN 3542875 from DAT in Sprague-Dawley rat brain striatum to Ki for Displacement of [3H]-nisoxetine from NET in Sprague-Dawley rat brain prefrontal cortex
Rattus norvegicus [8] = species: Rattus norvegicus; test: Selectivity index, ratio of Ki for displacement of [3H]-citalopram from SERT in Sprague-Dawley rat brainstem to Ki for Displacement of [3H]-nisoxetine from NET in Sprague-Dawley rat brain prefrontal cortex

Chain of Sodium-dependent serotonin transporter (P31652 whole entry): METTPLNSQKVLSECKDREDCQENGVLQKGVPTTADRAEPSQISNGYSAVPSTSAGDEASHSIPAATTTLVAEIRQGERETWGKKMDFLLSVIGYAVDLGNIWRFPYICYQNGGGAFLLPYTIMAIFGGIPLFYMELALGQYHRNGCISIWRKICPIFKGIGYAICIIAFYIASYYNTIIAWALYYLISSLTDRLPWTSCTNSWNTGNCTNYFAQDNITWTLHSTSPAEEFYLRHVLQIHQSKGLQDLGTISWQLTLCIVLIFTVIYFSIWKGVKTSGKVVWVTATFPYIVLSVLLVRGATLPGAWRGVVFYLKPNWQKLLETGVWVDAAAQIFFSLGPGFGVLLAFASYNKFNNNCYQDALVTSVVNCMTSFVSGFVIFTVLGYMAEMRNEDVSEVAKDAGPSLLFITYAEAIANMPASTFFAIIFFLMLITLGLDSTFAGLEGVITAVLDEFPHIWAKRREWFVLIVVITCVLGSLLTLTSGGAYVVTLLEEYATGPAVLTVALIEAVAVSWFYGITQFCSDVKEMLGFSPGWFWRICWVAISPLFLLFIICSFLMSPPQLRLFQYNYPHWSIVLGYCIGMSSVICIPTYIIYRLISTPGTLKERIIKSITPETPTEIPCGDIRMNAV

| Compound | Ki [1] [nM] | Ki [2] [nM] | Ki [3] [nM] | Activity [4] | Activity [5] | Activity [6] | Ratio Ki (Rattus norvegicus [7]) | Ratio Ki (Rattus norvegicus [8]) |
| --- | --- | --- | --- | --- | --- | --- | --- | --- |
| CNCCCC1(c2ccccc2)OC(C)(C)c2ccccc21 (stereo not given) [TALOPRAM] | 795 | > 10000 | 4.5 | – | – | – | – | – |
| CCN(CC)c1ccc2c(-c3ccc(S(=O)(=O)NCCCCCC(=O)NCCNCCCC4(c5ccccc5)OC(C)(C)c5ccccc54)cc3S(=O)(=O)[O-])c3ccc(=[N+](CC)CC)cc-3oc2c1 (stereo not given) | > 10000 | 4870 | > 10000 | – | – | – | – | – |
| CCN(CC)c1ccc2c(-c3ccc(S(=O)(=O)NCCCCCC(=O)NCc4cccc(C(CCNC)Oc5ccccc5OC)c4)cc3S(=O)(=O)[O-])c3ccc(=[N+](CC)CC)cc-3oc2c1 (stereo not given) | 785 | 1540 | 43 | Tde | Active | Dde | 36 | 18 |
| CCN(CC)c1ccc2c(-c3ccc(S(=O)(=O)NCCCCCC(=O)NCCN4C5CCC4[C@@H](C(=O)OC)[C@@H](c4ccc(Cl)c(Cl)c4)C5)cc3S(=O)(=O)[O-])c3ccc(=[N+](CC)CC)cc-3oc2c1 (stereo not given in full) | 16 | 17 | 79 | – | – | – | – | – |
| CCN(CC)c1ccc2c(-c3ccc(S(=O)(=O)NCCCCCC(=O)NCc4ccc5c(c4)C(C)(C)OC5(CCCNC)c4ccccc4)cc3S(=O)(=O)[O-])c3ccc(=[N+](CC)CC)cc-3oc2c1 (stereo not given) | 1140 | 964 | > 10000 | – | – | – | – | – |
